Experimental data taken from patent US11384063B2, “Modulators of estrogen receptor proteolysis and associated methods of use” (Arvinas Operations, Inc., priority 2017, dated 2022).
Like-named read-outs stand apart in the source and are kept apart here.

Biological target: T1, ERα (Homo sapiens, UniProt P03372)
T1 sequence (P03372 1-595): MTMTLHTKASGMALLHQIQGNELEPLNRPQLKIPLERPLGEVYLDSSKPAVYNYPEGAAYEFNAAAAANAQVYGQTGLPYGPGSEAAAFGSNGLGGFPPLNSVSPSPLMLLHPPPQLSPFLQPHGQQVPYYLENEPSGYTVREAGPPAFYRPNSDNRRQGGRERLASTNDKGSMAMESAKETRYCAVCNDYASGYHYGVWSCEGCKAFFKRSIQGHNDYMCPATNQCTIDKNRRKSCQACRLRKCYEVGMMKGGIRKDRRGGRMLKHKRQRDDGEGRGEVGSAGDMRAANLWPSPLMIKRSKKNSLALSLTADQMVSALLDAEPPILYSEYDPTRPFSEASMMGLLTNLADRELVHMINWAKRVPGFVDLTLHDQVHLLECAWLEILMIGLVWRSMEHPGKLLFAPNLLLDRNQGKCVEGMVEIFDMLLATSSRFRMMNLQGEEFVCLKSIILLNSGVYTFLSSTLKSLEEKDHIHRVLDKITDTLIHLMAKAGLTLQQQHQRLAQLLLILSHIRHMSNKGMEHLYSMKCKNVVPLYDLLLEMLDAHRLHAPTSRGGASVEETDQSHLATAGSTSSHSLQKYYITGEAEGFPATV
Test: ERE luciferase reporter gene assay in T47D-KBluc cells (target engagement)
Format: cell-based
Set-up: T47D human breast cancer cells stably transfected with estrogen responsive element/promoter/luciferase reporter gene; host or cells: T47D-KBluc cells
Settings: 10% FBS, 24 hours
Experimental: Chimeric molecules were assessed for target engagement in T47D cells using the commercial kit of ERE luciferase reporter gene assay. In the assay, 10% FBS was included and estrogen level was measured to be 10 pM.
ERE Luciferase Assay for Compounds in Table 1-3.
T47D-KBluc cells (ATCC #CRL_2865, T47D human breast cancer cells stably transfected with estrogen responsive element/promoter/luciferase reporter gene) were seeded into 96-well white opaque plates in RPMI growth medium supplemented with 10% fetal bovine serum and allowed to adhere overnight in a 37° C. humidified incubator. The following day, cells were treated with PROTACs in a 12-point concentration curve (top final concentration of 300 nM with subsequent concentrations being 3-fold less with 2 pM being the lowest concentration in the assay). Each PROTAC was tested independently in two experiments on 96-well plates. After 24 hours, media was removed and lysis buffer was added to the wells. Following lysis, Bright-Glo™ Luciferase Assay Substrate (Prornega, Madison Wis.) was added and the luciferase activity was measured using a Cytation 3 plate reader (TioTek™, Winooski, Vt.). Each compound was assayed in duplicates and the activity was calculated as IC50 using GraphPad Prism software (San Diego, Calif.).

[1] = Table 2 VHL centric PROTACs, read-out: IC50
[2] = Table 3 cereblon centric PROTACs, read-out: ER-α Luciferase IC50
[3] = Table 1 cereblon centric PROTACs, read-out: ER-α Luciferase IC50

IC50 [3]	also measured	SMILES
	IC50 [1]: 87 nM	Cc1ncsc1-c1ccc(CNC(=O)[C@@H]2C[C@@H](O)CN2C(=O)[C@@H](NC(=O)CCCOC2CCN(CCOc3ccc(Oc4c(-c5ccc(F)cc5)sc5cc(O)ccc45)cc3)CC2)C(C)(C)C)cc1 [Compound 137]
	IC50 [2]: 28.7 nM	O=C1CCC(N2C(=O)c3ccc(NCCCOCCCOCCCCOc4ccc(Oc5c(-c6ccc(Br)cc6)sc6cc(O)ccc56)cc4)cc3C2=O)C(=O)N1 (centres unmarked) [Compound 176]
34.1 nM		O=C1CCC(N2C(=O)c3ccc(OCCCOCCCOc4ccc(Oc5c(-c6ccc(Br)cc6)sc6cc(O)ccc56)cc4)cc3C2=O)C(=O)N1 (centres unmarked) [Compound 77]
2.4 nM		O=C1CC[C@H](N2Cc3cc(OCCN4CC5(CN(CCOc6ccc(Oc7c(-c8ccc(Br)cc8)sc8cc(O)ccc78)cc6)C5)C4)ccc3C2=O)C(=O)N1 [Compound 41]
4.7 nM		O=C1CCC(N2Cc3cc(OCCCOCCCOCCCOc4ccc(Oc5c(-c6ccc(Br)cc6)sc6cc(O)ccc56)cc4)ccc3C2=O)C(=O)N1 (centres unmarked) [Compound 36]
2.7 nM		O=C1CCC(N2Cc3c(OCCOc4ccc(Oc5c(-c6ccc(Br)cc6)sc6cc(O)ccc56)cc4)cccc3C2=O)C(=O)N1 (centres unmarked) [Compound 28]
	IC50 [2]: 31.6 nM	O=C1CCC(N2C(=O)c3ccc(N4CCN(CCCCc5ccc(Oc6c(-c7ccc(Br)cc7)sc7cc(O)ccc67)cc5)CC4)cc3C2=O)C(=O)N1 (centres unmarked) [Compound 211]
6.1 nM		O=C1CCC(N2Cc3cc(OCCCOCCOCCOc4ccc(Oc5c(-c6ccc(Br)cc6)sc6cc(O)ccc56)cc4)ccc3C2=O)C(=O)N1 (centres unmarked) [Compound 43]
8.3 nM		O=C1CCC(N2Cc3c(NCCOCCOc4ccc(Oc5c(-c6ccc(Br)cc6)sc6cc(O)ccc56)cc4)cccc3C2=O)C(=O)N1 (centres unmarked) [Compound 27]
17.7 nM		Cc1nc2c(NCCN3CCN(CCOc4ccc(Oc5c(-c6ccc(Br)cc6)sc6cc(O)ccc56)cc4)CC3)cccc2c(=O)n1C1CCC(=O)NC1=O (centres unmarked) [Compound 14]
11.4 nM		O=C1CCC(N2C(=O)c3ccc(NCCOCCOCCOc4ccc(Oc5c(-c6ccc(Br)cc6)sc6cc(O)ccc56)cc4)cc3C2=O)C(=O)N1 (centres unmarked) [Compound 67]
	IC50 [2]: 6.7 nM	O=C1CCC(N2Cc3cc(N4CC(CN5CCC(c6ccc(Oc7c(-c8ccc(Br)cc8)sc8cc(O)ccc78)cc6)CC5)C4)ccc3C2=O)C(=O)N1 (centres unmarked) [Compound 241]
	IC50 [1]: 5.5 nM	Cc1ncsc1-c1ccc(CNC(=O)[C@@H]2C[C@@H](O)CN2C(=O)[C@@H](NC(=O)COCCO[C@H]2CCN(CCOc3ccc(Oc4c(-c5ccc(F)cc5)sc5cc(O)ccc45)cc3)C2)C(C)(C)C)cc1 [Compound 123]
	IC50 [1]: 1.6 nM	Cc1ncsc1-c1ccc(CNC(=O)[C@@H]2C[C@@H](O)CN2C(=O)[C@@H](NC(=O)CCCC(=O)N2CCN(CCOc3ccc(Oc4c(-c5ccc(F)cc5)sc5cc(O)ccc45)cc3)[C@H](C)C2)C(C)(C)C)cc1 [Compound 125]
	IC50 [1]: > 100 nM	COc1ccc2c(Oc3ccc(OCCN4CCN(CCOCC(=O)N[C@H](C(=O)N5C[C@H](O)C[C@H]5C(=O)NCc5ccc(-c6scnc6C)cc5)C(C)(C)C)CC4)cc3)c(-c3ccc(Br)cc3)sc2c1 [Compound 154]
0.6 nM		CC(COc1ccc(Oc2c(-c3ccc(Br)cc3)sc3cc(O)ccc23)cc1)N1CCN(CCCCc2ccc3c(c2)CN(C2CCC(=O)NC2=O)C3=O)CC1 (centres unmarked) [Compound 53]
6.6 nM		O=C1CCC(N2Cc3cc(N4CCN(CCCCOc5ccc(Oc6c(-c7ccc(Br)cc7)sc7cc(O)ccc67)cc5)CC4)ccc3C2=O)C(=O)N1 (centres unmarked) [Compound 58]
0.63 nM		O=C1CCC(N2C(=O)c3cccc(NCCN4CCN(CCOc5ccc(Oc6c(-c7ccccc7)sc7cc(O)ccc67)cc5)CC4)c3C2=O)C(=O)N1 (centres unmarked) [Compound 10]
	IC50 [1]: > 100 nM	Cc1ncsc1-c1ccc(CNC(=O)[C@@H]2C[C@@H](O)CN2C(=O)[C@H](c2cc(OCCN3CCN(CCOc4ccc(Oc5c(-c6ccc(Br)cc6)sc6cc(O)ccc56)cc4)CC3)no2)C(C)C)cc1 [Compound 163]
0.36 nM		O=C1CCC(N2Cc3c(NCCN4CCN(CCOc5ccc(Oc6c(-c7ccccc7)sc7cc(O)ccc67)cc5)CC4)cccc3C2=O)C(=O)N1 (centres unmarked) [Compound 2]
